In patent US20130152227A1, “ENHANCED DISEASE […] INTRODUCTION OF NH3” (priority 2010, published 2013):
Where two headings read alike, the source gives them in different places.

Experiments:
NH3 = experiment: RT-PCR / real-time qPCR of NH3 after foliar spray; assay type: in vivo, Oryza sativa L
Excerpt: (§1) To investigate the BTH- and INA-induced responses at the molecular level, we looked at the transcript expression levels of several rice defense-related genes, including PR1a, PR3, PR10, POX (peroxidase), and NH1. RT-PCR results of these genes for response to BTH treatment are shown in FIG. 5a and real-time quantitative PCR results in FIG. 5b. The input cDNA amounts were equalized first by using actin as the reference in FIG. 5a. Quantitative expression data in FIG. 5b are expressed as fold of actin gene expression. As expected, the NH3 levels in the nNT-NH3 plants (filled bar) are elevated by about 3- to 4-fold compared to Kit (open bar) control before treatment. […] Mock treatment appears also has effects on the NH3 levels.
(§2) For 10 mM BTH treatment, the commercial product Actigard (Syngenta) was first used for foliar spray on the rice plants. Pure BTH chemical […] (Wako) was subsequently used in place of Actigard. One mM of BTH and INA solutions were prepared in 0.05% Tween 20 for foliar spray.
(§3) Leaf samples were collected and frozen immediately in liquid nitrogen. Leaf samples were stored at −80° C. until use. Total RNA was extracted using the Trizol reagent (Sigma) according to the manufacturer's instruction. RNA was reverse-transcribed using reverse transcriptase Superscript (Invitrogen). Approximately 10 μg of RNA was used for each reverse transcription. RT-PCR was first performed with primers targeting an actin gene as the reference. An equal amount of cDNA input was then used for RT-PCR for NH3 or defense-related genes. RT-PCR for NH3 used primers NH3-RT1 (5′[…]3′; SEQ ID NO:29) and NH3-RT2 (5′[…]3; SEQ ID NO:30). RT-PCR for NTAP-NH3 used primers NH3-2 (5′[…]3; SEQ ID NO:31) and NTAP-5 (5′[…]3; SEQ ID NO:32). RT-PCR for NH1 used primers NH1-RT1 (5′[…]3; SEQ ID NO:33) and NH1-TAP2 (5′[…]3; SEQ ID NO:34). Genes PR1a (Os07g03710) and PR10 (Os12g36830) as markers for plants defense have been described before (Park et al., 2008).
(§4) Quantitative real time PCR were performed on a Bio-Rad CFX96 Real-Time System coupled to a C1000 Thermal Cycler (Bio-Rad). […]

[1] = test system: peroxidase genes POX8.1 and POX22.3; experiment: RT-PCR / real-time qPCR of peroxidase genes after foliar spray; assay type: in vivo, Oryza sativa L
Excerpt: as §1, §2, §3, §4

PR3 = experiment: RT-PCR / real-time qPCR of PR3 after foliar spray; assay type: in vivo, Oryza sativa L; settings: for PR3 expression induction: 1 mM BTH
Excerpt: as §1, §2, §3, §4

NH1 = experiment: RT-PCR / real-time qPCR of NH1 after foliar spray; assay type: in vivo, Oryza sativa L; settings: 1 mM BTH
Excerpt: as §1, §2, §3, §4

[2] = test system: rice plants (nNT-NH3, NTAP control, Kit); settings: for lesion mimic spots / bleached areas on leaves: 1 mM foliar spray, one week
PR10 = experiment: RT-PCR / real-time qPCR of PR10 after foliar spray; assay type: in vivo, Oryza sativa L
Excerpt: as §1, §2, §3
Quantitative real time PCR were performed on a Bio-Rad CFX96 Real-Time System coupled to a C1000 Thermal Cycler (Bio-Rad). For qPCR reactions, the Bio-Rad SsoFast EvaGreen Supermix was used. QPCR primers used are as follows: Actin-Q1 ([…]; SEQ ID NO:35) and Actin-Q2 ([…]; SEQ ID NO:36) for actin gene; NH1-RT3 (CTGATCCGTTTCCCTCGGA; SEQ ID NO:37) and NH1-RT4 ([…]; SEQ ID NO:38) for the NH1 gene; NH3-RT3 ([…]; SEQ ID NO:39) and NH3-RT4 ([…]; SEQ ID NO:40) for the NH3 gene; PR3-1 ([…]; SEQ ID NO:41) and PR3-2 ([…]; SEQ ID NO:42) for the PR3 gene; POX8.1-1 ([…]; SEQ ID NO:43) and POX8.1-2 (CATGGGCTTCCTGATCTG; SEQ ID NO:44) for the POX8.1 gene; and POX22.3-1 (ATCGTGTCGACGACGACAT; SEQ ID NO:45) and POX22.3-2 ([…]; SEQ ID NO:46) for the POX22.3 gene. QPCR reactions were run at 56° C. annealing for 12 sec and 95° C. for 8 sec for 40 cycles.

PR1a = experiment: RT-PCR / real-time qPCR of PR1a after foliar spray; assay type: in vivo, Oryza sativa L; settings: 1 mM INA, Kit plants
Excerpt: as §1, §2
Leaf samples were collected and frozen immediately in liquid nitrogen. Leaf samples were stored at −80° C. until use. Total RNA was extracted using the Trizol reagent (Sigma) according to the manufacturer's instruction. […]
as §4

[3] = 1 mM BTH, both Kit and nNT-NH3 plants

c1ccc2snnc2c1 [BTH, benzothiadiazole]
NH3 transcript levels (NH3; 1 mM BTH, Kit control plants, especially day 4 and day 8): slightly reduced
NH3 levels (NH3; 1 mM BTH, nNT-NH3 plants): further modestly induced at day 1
POX8.1 expression [1, 3]: significantly induces
POX22.3 expression [1, 3]: significantly induces
PR3 expression induction (PR3; Kit plants): up to 2 fold
PR3 expression induction (PR3; nNT-NH3 plants): up to 10 fold
NH1 expression levels (NH1; Kit plants): relatively unchanged
NH1 level induction compared to untreated Kit (NH1; nNT-NH3 plants, one day after treatment): 2 fold
NH1 level induction (NH1; nNT-NH3 plants, one day after treatment, vs untreated nNT-NH3): about 3.5 fold
lesion mimic spots / bleached areas on leaves ([2]; Kit control plants): developed no lesion mimic spots at all
cell death phenotype ([2]; 10 mM foliar spray, NTAP control plants (Ubi-1 promoter)): completely clear of such cell death phenotype
time to dry-out of whole leaves ([2]; 10 mM foliar spray, nNT-NH3 plants): 3 to 4 days
PR10 expression induction (PR10; 1 mM BTH, Kit plants): up to 2 fold
PR10 expression induction over untreated Kit (PR10; 1 mM BTH, nNT-NH3 plants): ≤ 12 fold
PR10 expression induction over untreated nNT-NH3 (PR10; 1 mM BTH, nNT-NH3 plants): up to 51 fold

O=C(O)c1cc(Cl)nc(Cl)c1 [INA, 2,6-dichloroisonicotinic acid]
levels of NH3 expression (NH3; 1 mM INA): slightly reduces
POX expression ([1]; 1 mM INA, Kit and nNT-NH3 plants): induces
PR3 expression (PR3; 1 mM INA, Kit plants): slightly induces
PR1a expression (PR1a): slightly induces
lesion mimic spots / bleached areas on leaves ([2]; Kit control plants): little effects
lesion mimic spots / bleached areas on leaves ([2]; nNT-NH3 plants): developed typical lesion-mimic spots, but no bleached areas on leaves
PR10 expression (PR10; 1 mM INA, Kit plants): slightly induces
